In data set [1] the target is T1, Integrin alpha-V/beta-3 (Homo sapiens) (UniProt P05106+P06756). As to the kind of experiment: Antagonist activity at alphavbeta3 integrin-mediated human SK-MEL-2 cell adhesion to fibronectin at 5 uM incubated with cells for 4 hrs followed by incubation with fibronectin in humidified chamber for 1 hr followed by incubation for overnight at 37 degC by MTT assay. It is filed as cell-based. The following applies: filed as antagonist.

Data set [2] relates to SK-MEL-2. In words: Cytotoxicity against alphavbeta3-expressing human SK-MEL-2 cells assessed as reduction in cell viability measured after 96 hrs by MTT assay. It is filed as toxicity, cell-based. The following applies: sk-mel-2, 96 h.
Data set [3] deals with T1, Integrin alpha-V/beta-3 (Homo sapiens). In words: Antagonist activity at alphavbeta3 integrin-mediated human SK-MEL-2 cell adhesion to fibronectin at 50 uM incubated with cells for 4 hrs followed by incubation with fibronectin in humidified chamber for 1 hr followed by incubation for overnight at 37 degC by MTT assay. It is filed as cell-based.
The nature of data set [4]: Cytotoxicity against alphavbeta3-expressing human U-87 MG cells assessed as reduction in cell viability measured after 96 hrs by MTT assay. It is filed as toxicity, cell-based. Conditions: u-87mg atcc.
Data set [5] in a line: Toxicity in C57BL/6 immunocompetent mouse assessed as body weight upto 300 mg/kg, ip administered daily for 4 days. It is filed as organism-based. The following applies: in vivo, 96 h, time 4 day.

On to `COC(=O)[C@H](CNC(=O)[C@H]1C[C@@H](CCc2ccc3c(n2)NCCC3)C1)NS(=O)(=O)c1ccccc1`, for which, in data set [1], the inhibition was found to be 59.5%.
On to `COC(=O)[C@H](CCNC(=O)[C@H]1C[C@@H](CCc2ccc3cccnc3n2)C1)NS(=O)(=O)c1ccccc1`, for which, in data set [2], the Activity entry is “Toxic”. In addition, the inhibition entry in data set [3] was “Not determined; Greater Than 75% Inhibition In Initial Trial Experiment, Not Tested Further At This Concentration”.
In the case of `O=C1C[C@H](NS(=O)(=O)c2ccccc2)C(=O)N1[C@H]1C[C@@H](CCc2ccc3cccnc3n2)C1`, the Activity entry in data set [2] and in data set [4] was “Toxic” throughout.
On to `COC(=O)[C@H](CCNC(=O)[C@H]1C[C@@H](CCc2ccc3cccnc3n2)C1)NS(=O)(=O)c1c(C)cc(C)cc1C`, for which the Activity entry in data set [2] and in data set [4] was “Toxic” in each case. Besides, the inhibition entry in data set [3] is given as “Not determined; Greater Than 75% Inhibition In Initial Trial Experiment, Not Tested Further At This Concentration”.
In the case of `COC(=O)[C@H](CC(=O)N[C@H]1C[C@@H](CCc2ccc3c(n2)NCCC3)C1)NS(=O)(=O)c1c(C)cc(C)cc1C`, the Activity result in data set [2] and in data set [4] was “Toxic” each time.
As for `COC(=O)[C@H](CCNC(=O)[C@H]1C[C@@H](CCc2ccc3c(n2)NCCC3)C1)NS(=O)(=O)c1ccccc1`, in data set [2], the Activity entry is recorded as “Toxic”. For the same compound, the inhibition entry in data set [3] is listed as “Not determined; Greater Than 75% Inhibition In Initial Trial Experiment, Not Tested Further At This Concentration”.
As for `COC(=O)[C@H](CCNC(=O)[C@H]1C[C@@H](Cc2ccc3cccnc3n2)C1)NS(=O)(=O)c1ccccc1`, the Activity entry in data set [2] and in data set [4] was “Toxic” in each case.
Consider `COC(=O)[C@H](CC(=O)N[C@H]1C[C@@H](CCc2ccc3c(n2)NCCC3)C1)NS(=O)(=O)c1ccccc1`, for which the Activity entry in data set [2] and in data set [4] was “Toxic” in each case.
For the compound `Cc1cc(C)c(S(=O)(=O)N[C@H]2CC(=O)N([C@H]3C[C@@H](CCc4ccc5c(n4)NCCC5)C3)C2=O)c(C)c1`, the Activity entry in data set [2] is “Toxic”.
Turning to `COC(=O)[C@H](CC(=O)N[C@H]1C[C@@H](CCc2ccc3cccnc3n2)C1)NS(=O)(=O)c1ccccc1`, the Activity result in data set [2] and in data set [4] was “Toxic” in each case.
For `O=C(O)C[C@H](NS(=O)(=O)c1ccccc1)C(=O)N[C@H]1C[C@@H](CCc2ccc3cccnc3n2)C1`, in data set [2], the Activity result was “Toxic”.
Regarding `CC(C)(C)OC(=O)C[C@H](NS(=O)(=O)c1ccccc1)C(=O)N[C@H]1C[C@@H](CCc2ccc3c(n2)NCCC3)C1`, in data set [2], the Activity result is listed as “Toxic”.
Regarding `COC(=O)[C@H](CC(=O)N[C@H]1C[C@@H](CCc2ccc3cccnc3n2)C1)NS(=O)(=O)c1c(C)cc(C)cc1C`, the Activity result in data set [2] and in data set [4] was “Toxic” throughout.
Take `COC(=O)[C@H](CCNC(=O)[C@H]1C[C@@H](Cc2ccc3cccnc3n2)C1)NS(=O)(=O)c1c(C)cc(C)cc1C`: in data set [4], the Activity entry was “Toxic”.
Take `CNc1cccc(CC[C@H]2C[C@@H](C(=O)NC[C@H](NS(=O)(=O)c3c(C)cc(C)cc3C)C(=O)OC)C2)n1`: the values for the Activity result in data set [2], in data set [5] and in data set [4] were “Toxic”, “Non-toxic” and “Toxic”, respectively.
For `O=C(O)C[C@H](NS(=O)(=O)c1ccccc1)C(=O)N[C@H]1C[C@@H](CCc2ccc3c(n2)NCCC3)C1`, the Activity result in data set [2] was “Toxic”. Besides, the inhibition result in data set [3] is recorded as “Not determined; Greater Than 75% Inhibition In Initial Trial Experiment, Not Tested Further At This Concentration”.
Turning to `O=C1C[C@H](NS(=O)(=O)c2ccccc2)C(=O)N1[C@H]1C[C@@H](CCc2ccc3c(n2)NCCC3)C1`, the Activity entry in data set [2] and in data set [4] was “Toxic” in each case.
Turning to `COC(=O)[C@H](CCNC(=O)[C@H]1C[C@@H](CCc2ccc3c(n2)NCCC3)C1)NS(=O)(=O)c1c(C)cc(C)cc1C`, the Activity entry in data set [2] and in data set [4] was “Toxic” throughout. Also, the inhibition result in data set [3] is recorded as “Not determined; Greater Than 75% Inhibition In Initial Trial Experiment, Not Tested Further At This Concentration”.
Take `CC(C)(C)OC(=O)C[C@H](NS(=O)(=O)c1ccccc1)C(=O)N[C@H]1C[C@@H](CCc2ccc3cccnc3n2)C1`: the Activity result in data set [2] is given as “Toxic”. Besides, the inhibition result in data set [3] is recorded as “Not determined; Greater Than 75% Inhibition In Initial Trial Experiment, Not Tested Further At This Concentration”.
For `CNc1cccc(CC[C@H]2C[C@@H](C(=O)NC[C@H](NS(=O)(=O)c3ccccc3)C(=O)OC)C2)n1`, the Activity entry in data set [2] and in data set [4] was “Toxic” in each case. For the same compound, the inhibition entry in data set [3] is “Not determined; Greater Than 75% Inhibition In Initial Trial Experiment, Not Tested Further At This Concentration”.
On to `COC(=O)[C@H](CCNC(=O)[C@H]1C[C@@H](Cc2ccc3c(n2)NCCC3)C1)NS(=O)(=O)c1ccccc1`, for which the Activity entry in data set [2] and in data set [4] was “Toxic” throughout. Moreover, the inhibition result in data set [3] is recorded as “Not determined; Greater Than 75% Inhibition In Initial Trial Experiment, Not Tested Further At This Concentration”.
For the compound `COC(=O)[C@H](CCNC(=O)[C@H]1C[C@@H](Cc2ccc3c(n2)NCCC3)C1)NS(=O)(=O)c1c(C)cc(C)cc1C`, the Activity entry in data set [2] and in data set [4] was “Toxic” in each case. Moreover, in data set [3], the inhibition result was “Not determined; Greater Than 75% Inhibition In Initial Trial Experiment, Not Tested Further At This Concentration”.
With `Cc1cc(C)c(S(=O)(=O)N[C@H]2CC(=O)N([C@H]3C[C@@H](CCc4ccc5cccnc5n4)C3)C2=O)c(C)c1`, in data set [2], the Activity entry was “Toxic”.

The record behind these values is ChEMBL document CHEMBL6074637, “Sidechain structure-activity relationships of cyclobutane-based small molecule αvβ3 antagonists” (RSC Med Chem, 2024).
